The values that follow come from ChEMBL document CHEMBL1201862, “PubChem BioAssay data set” (2004).

SMILES strings stand for the structures.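 Growth conditions: 96-well plates. Treatment: test compound, 48 hours, 5 concentrations. Analysis: linear interpolation between bracketing concentrations; unreached endpoints set to highest concentration. The concentration for 50% growth inhibition is given as GI50.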 The source made the active and inactive calls. Rule as the data show it: active = GI50 up to about 1.1 µM and inactive = higher.

Among the test systems are SN12C; SK-MEL-28; CCRF-CEM; KM12; MDA-MB-435; LOX IMVI; DU-145; HCT-116; Malme-3M; RPMI-8226; HOP-62; ACHN; SW-620; A498; SK-MEL-2; SF-268; EKVX; IGROV-1; SF-539.
Holding throughout (experiment): growth of human tumour cells (NCI), 48 h

Turning to `O=C1c2ccccc2C(=O)N1C1(C(=O)NC2(C(=O)O)CCCC2)CCCC1`, the GI50 in the assay with SN12C, with SK-MEL-28, with CCRF-CEM, in the assay on KM12, in the assay on MDA-MB-435 and with LOX IMVI was > 100 µM (inactive) throughout. Moreover, the GI50 with DU-145, with HCT-116, with Malme-3M, with RPMI-8226, with HOP-62 and in the assay with ACHN was > 100 µM (inactive) in each case. The GI50 in the assay on SW-620, with A498, in the assay with SK-MEL-2, in the assay on SF-268, in the assay with EKVX and with IGROV-1 was > 100 µM (inactive) in each case.

For `CSCCC(NC(=O)C(Cc1c[nH]c2ccccc12)NC(=O)CCNC(=O)OC(C)(C)C)C(=O)NC(CC(=O)O)C(=O)NC(Cc1ccccc1)C(N)=O` (stereo not drawn), the GI50 in the assay on SN12C, with SK-MEL-28, with CCRF-CEM, in the assay with KM12, in the assay on MDA-MB-435 and in the assay with LOX IMVI was > 50 µM (inactive) in each case. The GI50 in the assay with SF-539, in the assay with DU-145, in the assay on HCT-116, with RPMI-8226, with HOP-62 and in the assay with SW-620 was > 50 µM (inactive) throughout. For the same compound, the GI50 with A498, with SK-MEL-2, in the assay with SF-268, in the assay on EKVX and with IGROV-1 was > 50 µM (inactive) each time.

For `O=C(/C=C/c1ccc(-c2ccccc2)cc1)NCc1ccc(C(=O)NCc2ccccc2)cc1`, the GI50 in the assay with SN12C, in the assay on SK-MEL-28, in the assay with CCRF-CEM, in the assay with KM12, in the assay with MDA-MB-435 and in the assay with LOX IMVI was > 100 µM (inactive) in each case. Further, the GI50 was > 100 µM (inactive) in the assay on SF-539; > 100 µM (inactive) in the assay with DU-145; > 100 µM (inactive) in the assay on HCT-116; > 100 µM (inactive) in the assay on Malme-3M; 57.1 µM (inactive) in the assay on HOP-62; > 100 µM (inactive) in the assay with ACHN. The GI50 in the assay with SW-620, in the assay on A498, with SK-MEL-2, in the assay on SF-268, in the assay on EKVX and in the assay on IGROV-1 was > 100 µM (inactive) throughout.

Consider `CC[C@]1(Cc2ccc(OC)c(OC)c2)C2CC(C(=O)OC)ON2O[C@H](OCc2ccccc2)[C@@H]1OC(C)=O` (stereo partly drawn), for which the GI50 in the assay with SN12C, with SK-MEL-28, in the assay on CCRF-CEM, in the assay with KM12, with MDA-MB-435 and with LOX IMVI was > 100 µM (inactive) each time. The GI50 in the assay with DU-145 was > 100 µM (inactive); with HCT-116 it was > 100 µM (inactive); in the assay with Malme-3M it was > 100 µM (inactive); in the assay on RPMI-8226, 98.6 µM (inactive); in the assay with HOP-62, > 100 µM (inactive); in the assay on ACHN, > 100 µM (inactive). Also, the GI50 with SW-620 is > 100 µM (inactive); with A498, > 100 µM (inactive); with SK-MEL-2, > 100 µM (inactive); in the assay with EKVX it was > 100 µM (inactive); in the assay with IGROV-1, 42.4 µM (inactive).

On to `Cc1ccc(/N=N/C(=O)NNc2ccc(C)cc2Br)c(Br)c1`, for which the GI50 is 21.4 µM (inactive) in the assay on SN12C; 21.4 µM (inactive) in the assay with SK-MEL-28; 2.58 µM (inactive) in the assay on CCRF-CEM; 30.5 µM (inactive) in the assay with MDA-MB-435; 18 µM (inactive) with LOX IMVI; 19.9 µM (inactive) with DU-145. The GI50 in the assay with HCT-116 is 10.9 µM (inactive); in the assay with Malme-3M, 19.6 µM (inactive); with RPMI-8226, 20 µM (inactive); in the assay on HOP-62 it was 19.6 µM (inactive); in the assay with ACHN it was 26.7 µM (inactive); in the assay with SW-620, 32.7 µM (inactive). Besides, the GI50 with A498 is 26.9 µM (inactive); with SK-MEL-2, 16.1 µM (inactive); in the assay with SF-268, 25.8 µM (inactive); with IGROV-1, 20.8 µM (inactive).

In the case of `Cc1nc(Nc2ccccc2Cl)sc1C(=O)CC(=O)C(N)=O`, the GI50 in the assay with SN12C was 37.8 µM (inactive); in the assay with CCRF-CEM it was 32.6 µM (inactive); in the assay on KM12, 13.2 µM (inactive); in the assay on MDA-MB-435, 16 µM (inactive); in the assay on LOX IMVI, 27.4 µM (inactive); in the assay with SF-539 it was 76.4 µM (inactive). The GI50 in the assay on DU-145 was > 100 µM (inactive); with HCT-116, 10.9 µM (inactive); with RPMI-8226 it was 26.3 µM (inactive); in the assay with HOP-62, > 100 µM (inactive); in the assay on ACHN, 32.7 µM (inactive); in the assay on SW-620 it was 29 µM (inactive). The GI50 in the assay on A498 was 19.7 µM (inactive); in the assay with SK-MEL-2, 35.1 µM (inactive); with SF-268 it was > 100 µM (inactive); in the assay on EKVX, 18.2 µM (inactive); in the assay with IGROV-1, 39.3 µM (inactive).

For the compound `O=S1(=O)c2ccccc2C(=NO)c2ccccc21`, the GI50 was 92.9 µM (inactive) in the assay with SN12C; > 100 µM (inactive) with SK-MEL-28; 47.1 µM (inactive) in the assay with CCRF-CEM; > 100 µM (inactive) with KM12; > 100 µM (inactive) with MDA-MB-435; 80.2 µM (inactive) with LOX IMVI. In addition, the GI50 is > 100 µM (inactive) with SF-539; > 100 µM (inactive) in the assay on DU-145; > 100 µM (inactive) with HCT-116; 59.4 µM (inactive) in the assay on RPMI-8226; > 100 µM (inactive) in the assay on HOP-62; > 100 µM (inactive) in the assay with ACHN. In addition, the GI50 was > 100 µM (inactive) with SW-620; > 100 µM (inactive) in the assay with A498; > 100 µM (inactive) in the assay on SK-MEL-2; > 100 µM (inactive) in the assay on SF-268; 35.3 µM (inactive) with EKVX; 64 µM (inactive) in the assay on IGROV-1.

As for `OCC1CCCCN1Cc1nc2cc(Cl)ccc2[nH]1` (stereo not drawn), the GI50 with SN12C, with SK-MEL-28, with CCRF-CEM, with KM12, in the assay on MDA-MB-435 and in the assay with SF-539 was > 100 µM (inactive) throughout. The GI50 in the assay with DU-145, in the assay on HCT-116, with Malme-3M, in the assay on RPMI-8226, in the assay with HOP-62 and in the assay with ACHN was > 100 µM (inactive) in each case. Further, the GI50 in the assay on SW-620, with A498, in the assay on SK-MEL-2, with SF-268, in the assay on EKVX and with IGROV-1 was > 100 µM (inactive) in each case.

With `COC(=O)[C@]1(CCC(C)=O)C(=O)C=CN([C@H](C)c2ccccc2)[C@@H]1Cc1ccc(OC)c(OCc2ccccc2)c1I`, the GI50 was 18 µM (inactive) in the assay with SN12C; 35.2 µM (inactive) in the assay on SK-MEL-28; 25.4 µM (inactive) in the assay on CCRF-CEM; 19.2 µM (inactive) with KM12; 18.1 µM (inactive) in the assay on MDA-MB-435; 17.2 µM (inactive) in the assay with LOX IMVI. The GI50 in the assay with SF-539 was 16.6 µM (inactive); in the assay with DU-145, 16.7 µM (inactive); in the assay with HCT-116, 14 µM (inactive); in the assay with RPMI-8226, 14.7 µM (inactive); with HOP-62, 22.8 µM (inactive); with ACHN it was 25.7 µM (inactive). The GI50 in the assay on SW-620 is 32.9 µM (inactive); with A498, 22.5 µM (inactive); in the assay on SK-MEL-2 it was 16.6 µM (inactive); in the assay on SF-268 it was 15.4 µM (inactive); in the assay with EKVX it was 29.6 µM (inactive); in the assay on IGROV-1, 12.6 µM (inactive).

For `COC(=O)c1cc(=O)n(-c2ccc3nn(C)nc3c2)cc1C(=O)OC`, the GI50 in the assay on SN12C, in the assay on SK-MEL-28, in the assay with CCRF-CEM, with KM12, with MDA-MB-435 and with SF-539 was > 100 µM (inactive) in each case. Also, the GI50 with DU-145, with HCT-116, in the assay on Malme-3M, in the assay with RPMI-8226, in the assay on HOP-62 and in the assay with ACHN was > 100 µM (inactive) each time. Further, the GI50 in the assay on SW-620, in the assay with A498, with SK-MEL-2, with SF-268, in the assay with EKVX and with IGROV-1 was > 100 µM (inactive) throughout.

Take `c1ccc(-c2cccc(-c3ccccn3)n2)nc1` [TERPYRIDINE]: the GI50 in the assay on SN12C was 0.631 µM (active); in the assay on SK-MEL-28, 0.706 µM (active); in the assay on CCRF-CEM it was 0.249 µM (active); with KM12, 0.507 µM (active); in the assay on MDA-MB-435 it was 0.483 µM (active); with SF-539 it was 0.51 µM (active). Moreover, the GI50 in the assay with DU-145 was 0.324 µM (active); with HCT-116, 0.344 µM (active); with Malme-3M, 0.181 µM (active); in the assay with RPMI-8226, 0.315 µM (active); in the assay on HOP-62, 0.52 µM (active); in the assay on ACHN it was 0.385 µM (active). For the same compound, the GI50 was 1.06 µM (active) in the assay on SW-620; 1.09 µM (active) in the assay on A498; 1.17 µM (inactive) in the assay with SK-MEL-2; 0.495 µM (active) in the assay with SF-268; 0.476 µM (active) in the assay with EKVX; 0.48 µM (active) in the assay with IGROV-1.
